According to patent publication US20050256073A1, “Immunostimulatory viral RNA oligonucleotides” (Coley Pharmaceutical Group, Inc., priority 2004, published 2005):
Several values for one entry are separate records, joined by “and”; a condition that tells them apart may be missing. Identical values can stand only once. Like-named read-outs stand apart in the source and are kept apart here.

Legend:
Assay type in all cases: cell-based
human PBMC [1] = details: for EC50: read-out: TNF production EC50
human PBMC [2] = details: for EC50: read-out: IFN-α production EC50
human PBMC [3] = details: for EC50: read-out: IFN-γ production EC50
human TLR9 = target: T1, human TLR9 (Homo sapiens, UniProt Q9NR96); assay: NF-κB-luciferase readout in HEK293 cells stably transfected with human TLR9
T1 construct: expressed in transfected cells; host or cells: HEK293 cells, stably transfected, with NF-κB-luciferase reporter construct
T1 sequence (Q9NR96 26-1032): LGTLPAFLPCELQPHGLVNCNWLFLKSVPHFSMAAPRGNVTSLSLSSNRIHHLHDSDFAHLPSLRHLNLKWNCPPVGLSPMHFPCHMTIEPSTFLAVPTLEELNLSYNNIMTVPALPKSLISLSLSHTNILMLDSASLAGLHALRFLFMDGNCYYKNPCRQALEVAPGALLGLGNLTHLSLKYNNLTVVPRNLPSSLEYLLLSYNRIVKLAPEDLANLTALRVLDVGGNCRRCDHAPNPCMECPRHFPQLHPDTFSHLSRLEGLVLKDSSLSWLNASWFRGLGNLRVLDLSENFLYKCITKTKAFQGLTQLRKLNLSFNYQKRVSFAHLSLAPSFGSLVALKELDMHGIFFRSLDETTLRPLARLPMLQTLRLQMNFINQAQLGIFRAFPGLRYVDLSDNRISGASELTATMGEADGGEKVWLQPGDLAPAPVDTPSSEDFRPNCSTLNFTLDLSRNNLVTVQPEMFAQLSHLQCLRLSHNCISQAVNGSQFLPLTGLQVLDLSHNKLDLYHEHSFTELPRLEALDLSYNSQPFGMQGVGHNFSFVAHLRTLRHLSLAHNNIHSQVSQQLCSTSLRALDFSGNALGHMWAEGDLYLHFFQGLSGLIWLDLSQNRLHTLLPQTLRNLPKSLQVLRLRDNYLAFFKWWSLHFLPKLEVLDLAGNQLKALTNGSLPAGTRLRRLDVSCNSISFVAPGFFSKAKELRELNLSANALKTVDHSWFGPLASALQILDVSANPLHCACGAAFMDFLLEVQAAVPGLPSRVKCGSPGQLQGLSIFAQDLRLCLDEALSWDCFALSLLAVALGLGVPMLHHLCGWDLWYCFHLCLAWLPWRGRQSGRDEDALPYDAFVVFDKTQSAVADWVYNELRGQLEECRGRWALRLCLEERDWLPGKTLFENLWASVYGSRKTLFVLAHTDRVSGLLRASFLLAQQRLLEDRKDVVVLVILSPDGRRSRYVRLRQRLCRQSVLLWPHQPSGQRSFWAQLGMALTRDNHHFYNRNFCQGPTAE
Experimental: (§1) Emitted light varied in direct proportion to NF-κB activation.
(§2) The effect of immunostimulatory oligonucleotide was assessed by titrating the amount or concentration of oligonucleotide concentration in a given experiment. The effect of immunostimulatory oligonucleotide concentration was expressed in terms of EC50 (concentration at which immunostimulatory oligonucleotide was 50 percent effective compared to maximum effect). The potency of a given immunostimulatory oligonucleotide was expressed as maximum stimulation index (SI max; the maximum fold increase in signal over that of untreated control) or maximum activity.
(§3) Stimulation and measurement of signal transduction in HEK293 cells stably transfected with either human TLR8 or human TLR9 and an NF-κB-luciferase reporter construct was performed essentially as described in Example 1. […] Results are expressed in terms of EC50 in μM and stimulation index (SI)=fold induction of NF-κB-luciferase activity in ligand-pulsed cells.

human TLR8 = target: T2, human TLR8 (Homo sapiens, UniProt Q9NR97); assay: NF-κB-luciferase readout in HEK293 cells stably transfected with human TLR8
T2 construct: expressed in transfected cells; host or cells: HEK293 cells, stably transfected, with NF-κB-luciferase reporter construct
T2 sequence (Q9NR97 27-1041): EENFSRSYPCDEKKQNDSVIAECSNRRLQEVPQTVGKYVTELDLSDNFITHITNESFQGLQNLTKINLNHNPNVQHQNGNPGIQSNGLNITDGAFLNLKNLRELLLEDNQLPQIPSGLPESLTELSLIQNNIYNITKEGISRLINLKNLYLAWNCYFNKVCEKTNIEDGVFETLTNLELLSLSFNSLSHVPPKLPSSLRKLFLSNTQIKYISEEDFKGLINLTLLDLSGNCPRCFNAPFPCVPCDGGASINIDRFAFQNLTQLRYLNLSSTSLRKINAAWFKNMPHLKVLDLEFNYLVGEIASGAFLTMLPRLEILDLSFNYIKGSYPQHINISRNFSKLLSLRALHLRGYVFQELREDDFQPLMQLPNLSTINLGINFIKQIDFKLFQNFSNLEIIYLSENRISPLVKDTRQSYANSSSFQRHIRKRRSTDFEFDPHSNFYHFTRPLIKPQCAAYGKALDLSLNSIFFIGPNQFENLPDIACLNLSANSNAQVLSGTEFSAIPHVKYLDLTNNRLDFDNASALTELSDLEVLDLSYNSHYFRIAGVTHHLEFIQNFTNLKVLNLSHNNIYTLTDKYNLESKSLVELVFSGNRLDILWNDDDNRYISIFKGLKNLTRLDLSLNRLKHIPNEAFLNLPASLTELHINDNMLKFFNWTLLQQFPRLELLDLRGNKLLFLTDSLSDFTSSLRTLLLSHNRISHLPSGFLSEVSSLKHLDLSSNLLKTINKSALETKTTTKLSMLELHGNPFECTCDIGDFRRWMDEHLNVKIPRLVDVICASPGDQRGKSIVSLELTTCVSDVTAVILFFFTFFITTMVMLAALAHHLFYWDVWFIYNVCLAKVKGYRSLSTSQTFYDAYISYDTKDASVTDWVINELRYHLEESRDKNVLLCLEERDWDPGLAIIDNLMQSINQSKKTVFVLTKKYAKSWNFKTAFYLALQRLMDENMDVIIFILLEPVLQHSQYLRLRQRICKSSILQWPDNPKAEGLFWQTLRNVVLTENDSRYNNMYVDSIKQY
Experimental: as §1, §2, §3

human CD14+ cells = assay: CD80 expression on human CD14+ cells (FACS)
[4] = test system: human CD19+ cells (B cells); assay: CD80 expression on human CD19+ cells (FACS)
human PBMC [5] = test system: human PBMC

Row | Substance | TNF production max activity (human PBMC [1]) | EC50 (human PBMC [1]) | IFN-α production max activity (human PBMC [2]) [pg/mL] | EC50 (human PBMC [2]) | IFN-γ production max activity (human PBMC [3]) | other results
1 | UUGUUGUUUUGUUGUUUUGUUGUU [ORN 15] | 60000 pg/mL | 40 nM | 2500 | 5 nM |  | 
2 | AGCGAAAGCAGGUCAAUUAU [ORN 5, reference compound] | 0 pg/mL |  | 0 |  | 0 pg/mL | 
3 | UUGAUCUGGUUGUUAAGCGU [ORN 6] | 8750 pg/mL and 10000 pg/mL and 7000 pg/mL and 8000 pg/mL | 462 nM and 409 nM and 604 nM and 498 nM and 493 nM |  |  | 60000 pg/mL and 30000 pg/mL and 45000 pg/mL | EC50 (human PBMC [3]): 635 nM and 586 nM and 611 nM
4 | UCGUCGUUUUGUCGUUUUGUCGUU [ORN 14] | 53833 pg/mL | 78 nM | 2783 | 37.3 nM |  | 
5 | GCCACCGAGCCGAUUGUACC [ORN 22] | 23833 pg/mL | 244 nM | 2417 | 1110 nM |  | 
6 | dTdCdGdTdCdGdTdTdT 2′-5′ (GUUGUGU) dAdAdT [ORN 13] | 0 pg/mL |  |  | 15 nM and 25 nM | 0 pg/mL | TLR9 stimulation (in words) (human TLR9): maintained; EC50 (human TLR9; Table 11, HEK293, NF-κB-luciferase): 110 nM; TLR8 stimulation (in words) (human TLR8): lost
7 | TUGTUGTTTTUGGUGGUUGUUG [ORN 18] | 61667 pg/mL | 200 nM | 2617 | 79.5 nM |  | 
8 | dNdNdNdNdNdNUUGdNdNdNdNdNdNdNdNdN [ORN 33] | 0 pg/mL |  | 0 |  |  | 
9 | GGGGAUGAUGTUGTGGGGGGG [ORN 20] | 0 pg/mL |  | 0 |  |  | 
10 | UUGUACGCAUUUUUUCGCGU [ORN 1] | 8500 pg/mL and 8000 pg/mL and 10000 pg/mL | 494 nM and 417 nM and 473 nM and 529 nM and 478 nM |  |  | 50000 pg/mL and 60000 pg/mL and 55000 pg/mL | EC50 (human PBMC [3]): 592 nM and 517 nM and 555 nM
11 | CUUACCCAACUUUGUUUGGU [ORN 2] | 9500 pg/mL and 8000 pg/mL and 13000 pg/mL and 10000 pg/mL and 7000 pg/mL |  |  | 34 nM and 68 nM and 60 nM and 38 nM and 50 nM | 50000 pg/mL and 40000 pg/mL and 45000 pg/mL | EC50 (human PBMC [3]): 514 nM and 529 nM and 522 nM
12 | UGUUUUUUCUCUUGUUUGGU [ORN 3] |  | 419 nM and 421 nM and 470 nM and 337 nM and 412 nM |  |  | 60000 pg/mL and 70000 pg/mL and 65000 pg/mL | induction of co-stimulatory molecule CD80 on CD14+ cells (human CD14+ cells): induce; induction of co-stimulatory molecule CD80 on CD19+ cells (B cells) [4]: induce; EC50 (human PBMC [3]): 528 nM and 606 nM and 567 nM
13 | dNdNdNdNdNdNUUGUGdNdNdNdNdNdNdN [ORN 31] | 18000 pg/mL | 4890 nM | 766.7 | 3870 nM |  | 
14 | GCCACCGAGCCGAUUUUACC [ORN 23] | 25500 pg/mL | 228 nM | 2333 | 41 nM |  | 
15 | GGGGAUGAUGUUGUGGGGGGG [ORN 19] | 37667 pg/mL | 415 nM | 2867 | 129 nM |  | 
16 | GCCACCGAGCCGAAGGCAAC [ORN 21, reference compound] | 0 pg/mL |  | 0 |  |  | immunostimulatory activity (in words) (human PBMC [5]): no immunostimulatory activity
17 | TUGTUGTTTTGTUGTTTTGTUGTT [ORN 16] | 56667 pg/mL | 234 nM | 2267 | 1100 nM |  | 
18 | AAUGGUUUGUUUGUCUUCGU [ORN 7] | 7500 pg/mL and 10000 pg/mL and 7000 pg/mL and 8000 pg/mL and 5000 pg/mL | 357 nM and 325 nM and 544 nM and 468 nM and 424 nM |  |  | 50000 pg/mL and 80000 pg/mL and 65000 pg/mL | EC50 (human PBMC [3]): 490 nM and 642 nM and 566 nM
19 | dNdNdNdNdNdNdNUGdNdNdNdNdNdNdNdNdN [ORN 34] | 0 pg/mL |  | 0 |  |  | 
20 | dNdNdNdNdNdNUUGUdNdNdNdNdNdNdNdN [ORN 32] | 30000 pg/mL | 7980 nM | 666.7 | 4560 nM |  | 
21 | UUGUUGUUUUUGGUGGUUGUUG [ORN 17] | 70000 pg/mL | 57.5 nM | 3000 | 15.2 nM |  | 
22 | TCGTCGTTTTCGGCGCGCGCCG [CpG ODN 2395, reference compound] |  |  |  |  |  | induction of co-stimulatory molecule CD80 on CD19+ cells (B cells) [4]: induce
23 | AUAAUUGACCUGCUUUCGCU [ORN 4] | 5750 pg/mL and 8000 pg/mL and 5000 pg/mL | 412 nM and 400 nM and 559 nM and 512 nM and 471 nM |  |  |  | induction of co-stimulatory molecule CD80 on CD14+ cells (human CD14+ cells): induce; induction of co-stimulatory molecule CD80 on CD19+ cells (B cells) [4]: induce; profile of immunostimulation (cytokines induced) (human PBMC [5]): very broad, including induction of TNF-α, IL-6, IL-12 p40, IFN-α, and IFN-γ; EC50 (human PBMC [3]): 637 nM and 490 nM and 564 nM
